Experimental data from ChEMBL document CHEMBL4811282, “Synthesis and biological evaluation of novel 2-alkoxycarbonylallylester phosphonium derivatives as potential anticancer agents” (Bioorg Med Chem Lett, 2021).
Calls of active or inactive are those of the source. No cut-off for these calls is given here.

Key:
MCF7 [1] = assay: Antiproliferative activity against human MCF7 cells assessed as inhibition of cell proliferation measured by MTT assay; type: functional, cell-based
MDA-MB-231 [2] = assay: Antiproliferative activity against human MDA-MB-231 cells assessed as inhibition of cell proliferation measured by MTT assay; type: functional, cell-based
MIA PaCa-2 [3] = assay: Antiproliferative activity against human MIA PaCa-2 cells assessed as inhibition of cell proliferation measured by MTT assay; type: functional, cell-based
WiDr [4] = assay: Antiproliferative activity against human WiDr cells assessed as inhibition of cell proliferation measured by MTT assay; type: functional, cell-based
4T1 [5] = assay: Antiproliferative activity against mouse 4T1 cells assessed as inhibition of cell proliferation measured by MTT assay; type: functional, cell-based
[6] = Antiproliferative activity against mouse 67NR cells assessed as inhibition of cell proliferation measured by MTT assay; type: functional, cell-based
MCF7 [7] = assay: Antiproliferative activity against human MCF7 cells assessed as inhibition of cell proliferation measured by SRB assay; type: functional, cell-based
MDA-MB-231 [8] = assay: Antiproliferative activity against human MDA-MB-231 cells assessed as inhibition of cell proliferation measured by SRB assay; type: functional, cell-based
MIA PaCa-2 [9] = assay: Antiproliferative activity against human MIA PaCa-2 cells assessed as inhibition of cell proliferation measured by SRB assay; type: functional, cell-based
WiDr [10] = assay: Antiproliferative activity against human WiDr cells assessed as inhibition of cell proliferation measured by SRB assay; type: functional, cell-based
4T1 [11] = assay: Antiproliferative activity against mouse 4T1 cells assessed as inhibition of cell proliferation measured by SRB assay; type: functional, cell-based
[12] = Antiproliferative activity against mouse 67NR cells assessed as inhibition of cell proliferation measured by SRB assay; type: functional, cell-based
[13] = Cytotoxicity against human HDFa cells assessed as inhibition of cell proliferation; type: cell-based
[14] = Toxicity against CD-1 mouse assessed as changes in grooming pattern at 10 mg/kg for 6 days per week measured after 14 days; type: organism-based; conditions: in vivo, 336 h, time 14 day
[15] = Toxicity against CD-1 mouse assessed as changes in body weight at 10 mg/kg for 6 days per week measured after 14 days; type: organism-based; conditions: in vivo
4T1 [16] = assay: Induction of mitochondrial stress in mouse 4T1 cells assessed as decrease in mitochondrial respiration in presence of oligomycin/FCCP/antimycin A/rotenone by seahorse XFe96 analyser based assay; type: functional, cell-based; conditions: dose 0.625-10 µM
4T1 [17] = assay: Induction of mitochondrial stress in mouse 4T1 cells assessed as proton leak across mitochondrial inner membrane in presence of oligomycin/FCCP/antimycin A/rotenone by seahorse XFe96 analyser based assay; type: functional, cell-based; conditions: dose 0.625-10 µM
4T1 [18] = assay: Induction of mitochondrial stress in mouse 4T1 cells assessed as decrease in ATP production in presence of oligomycin/FCCP/antimycin A/rotenone by seahorse XFe96 analyser based assay; type: functional, cell-based; conditions: dose 0.625-10 µM
MDA-MB-231 [19] = assay: Induction of mitochondrial stress in human MDA-MB-231 cells assessed as decrease in mitochondrial respiration at 0.625 to 10 uM in presence of oligomycin/FCCP/antimycin A/rotenone by seahorse XFe96 analyser based assay; type: functional, cell-based; conditions: dose 0.625-10 µM
MDA-MB-231 [20] = assay: Induction of mitochondrial stress in human MDA-MB-231 cells assessed as proton leak across mitochondrial inner membrane in presence of oligomycin/FCCP/antimycin A/rotenone by seahorse XFe96 analyser based assay; type: functional, cell-based; conditions: dose 0.3125-10 µM
MDA-MB-231 [21] = assay: Induction of mitochondrial stress in human MDA-MB-231 cells assessed as decrease in ATP production at 0.3125 to 10 uM in presence of oligomycin/FCCP/antimycin A/rotenone by seahorse XFe96 analyser based assay; type: functional, cell-based; conditions: dose 0.3125-10 µM
4T1 [22] = assay: Induction of mitochondrial stress in mouse 4T1 cells assessed as effect on spare respiratory capacity at 5 to 10 uM in presence of oligomycin/FCCP/antimycin A/rotenone by seahorse XFe96 analyser based assay; type: functional, cell-based; conditions: dose 5-10 µM

SMILES	IC50 (MCF7 [1])	IC50 (MDA-MB-231 [2])	IC50 (MIA PaCa-2 [3])	IC50 (WiDr [4])	IC50 (4T1 [5])	IC50 [6]	further results
C=C(C[P+](c1ccccc1)(c1ccccc1)c1ccccc1)C(=O)OC(C)(C)C	1990 nM	2880 nM	2870 nM	2080 nM	2760 nM	7570 nM	–
C=C(C[P+](c1ccc(C)cc1)(c1ccc(C)cc1)c1ccc(C)cc1)C(=O)OC	2430 nM	3790 nM	2660 nM	1480 nM	1780 nM	5340 nM	–
COC(=O)/C(=C/c1ccc(OC)cc1)C[P+](c1ccc(OC)cc1)(c1ccc(OC)cc1)c1ccc(OC)cc1.[Br-]	1400 nM	3700 nM	1370 nM	1140 nM	3360 nM	4590 nM	IC50 (MCF7 [7]): 170 nM; IC50 (MDA-MB-231 [8]): 2190 nM; IC50 (MIA PaCa-2 [9]): 310 nM; IC50 (WiDr [10]): 760 nM; IC50 (4T1 [11]): 1830 nM; IC50 [12]: 2560 nM; IC50 [13]: 23900 nM; Activity [14]: Non-Toxic; Activity [15]: Non-Toxic
C=C(C[P+](c1ccc(OC)cc1)(c1ccc(OC)cc1)c1ccc(OC)cc1)C(=O)OC	2780 nM	4870 nM	3600 nM	1620 nM	1850 nM	10600 nM	–
C=C(C[P+](c1ccc(OC)cc1)(c1ccc(OC)cc1)c1ccc(OC)cc1)C(=O)OC(C)(C)C	980 nM	2690 nM	1390 nM	810 nM	1080 nM	2170 nM	–
COc1ccc([P+](C/C(=C\c2ccc(Br)cc2)C(=O)OC(C)(C)C)(c2ccc(OC)cc2)c2ccc(OC)cc2)cc1	640 nM	2100 nM	360 nM	950 nM	860 nM	620 nM	IC50 (MCF7 [7]): 63 nM; IC50 (MDA-MB-231 [8]): 580 nM; IC50 (MIA PaCa-2 [9]): 200 nM; IC50 (WiDr [10]): 140 nM; IC50 (4T1 [11]): 500 nM; IC50 [12]: 470 nM; Activity (4T1 [16]): Dose-Dependent Effect; Activity (4T1 [17]): Dose-Dependent Effect; Activity (4T1 [18]): Dose-Dependent Effect; Activity (MDA-MB-231 [19]): Active; Activity (MDA-MB-231 [20]): Dose-Dependent Effect; Activity (MDA-MB-231 [21]): Active; IC50 [13]: 5500 nM; Activity (4T1 [22]): Active
COC(=O)/C(=C/c1ccc(Br)cc1)C[P+](c1ccc(OC)cc1)(c1ccc(OC)cc1)c1ccc(OC)cc1	1240 nM	1910 nM	730 nM	900 nM	1210 nM	2900 nM	IC50 (MCF7 [7]): 170 nM; IC50 (MDA-MB-231 [8]): 940 nM; IC50 (MIA PaCa-2 [9]): 290 nM; IC50 (WiDr [10]): 810 nM; IC50 (4T1 [11]): 1250 nM; IC50 [12]: 1780 nM
C=C(C[P+](c1ccc(F)cc1)(c1ccc(F)cc1)c1ccc(F)cc1)C(=O)OC	47000 nM	91100 nM	100000 nM	19000 nM	61900 nM	73900 nM	–
C=C(C[P+](c1ccccc1)(c1ccccc1)c1ccccc1)C(=O)OC	19900 nM	28900 nM	27400 nM	7740 nM	14800 nM	58400 nM	–
COC(=O)/C(=C/c1ccc(Cl)cc1)C[P+](c1ccc(OC)cc1)(c1ccc(OC)cc1)c1ccc(OC)cc1	1370 nM	3010 nM	590 nM	1320 nM	980 nM	–	–
COC(=O)/C(=C/c1ccccc1)C[P+](c1ccc(OC)cc1)(c1ccc(OC)cc1)c1ccc(OC)cc1	2670 nM	9270 nM	4590 nM	2740 nM	7200 nM	4870 nM	–
COC(=O)/C(=C/c1ccc([N+](=O)[O-])cc1)C[P+](c1ccc(OC)cc1)(c1ccc(OC)cc1)c1ccc(OC)cc1	8830 nM	8290 nM	5590 nM	5950 nM	4730 nM	28700 nM	–
COC(=O)/C(=C/c1ccc(C#N)cc1)C[P+](c1ccc(OC)cc1)(c1ccc(OC)cc1)c1ccc(OC)cc1	4490 nM	12500 nM	7860 nM	4870 nM	20400 nM	> 100000 nM	–
COC(=O)/C(=C/c1ccc(C)cc1)C[P+](c1ccc(OC)cc1)(c1ccc(OC)cc1)c1ccc(OC)cc1	7470 nM	9790 nM	340 nM	2580 nM	5230 nM	2780 nM	–
COC(=O)/C(=C/c1ccc(F)cc1)C[P+](c1ccc(OC)cc1)(c1ccc(OC)cc1)c1ccc(OC)cc1	1420 nM	7410 nM	1290 nM	2140 nM	4570 nM	5140 nM	–
C=C(C[P+](c1ccccc1)(c1ccccc1)c1ccccc1)C(=O)N(C)C	> 100000 nM	> 100000 nM	> 100000 nM	81200 nM	> 100000 nM	> 100000 nM	–
